Measured values from US20190298743A1, “TREATMENT OF PAIN” (Takeda Pharmaceutical Company Limited, priority 2016, published 2019).

Legend:
PAR2 [1] = assay: BRET receptor trafficking, PAR2-RLuc8 with plasma membrane marker RIT-venus in HEK293 cells; assay type: cell-based; conditions: for Effect on trypsin evoked internalisation, plasma membrane marker: 30 μM inhibitor, 30 minute pre-treatment
Method: (§1) Bret studies of receptor trafficking were conducted to quantify PAR2 internalisation (RIT-venus) and trafficking to early endosomes (Rab5a-venus) upon stimulation with different agonists.
(§2) After achieving ˜50% confluency within 10 cm dishes HEK293 cells were transiently transfected with 1 μg PAR2-RLuc8 and 4 μg of either RIT-venus or Rab5a-venus using PEI as a transfection agent. 24 hours post transfection, cells were seeded into poly-D-lysine coated 96-well isoplates. […] When used endocytic inhibitors were diluted in 1×HBSS+1% dimethyl sulfoxide (DMSO). Following the replacement of culture media cells were allowed to equilibrate at 37° C. for 30 minutes before the addition of colenterazine H [5 μM]. After a further 5 minute incubation BRET was assessed using a LUMIstar Omega microplate reader (BMG LabTech, Offenburg, Germany), with luminescence being read at 535 nm and 475 nm. A 4 minute baseline was obtained before the addition of vehicle (1×HBSS+/−1% DMSO) or protease, measurements were then continued for a further 30 minutes. BRET ratios were calculated using LUMIstar MARS analysis software and then corrected to baseline and vehicle treatments in Microsoft Excel 2013.

PAR2 [2] = assay: BRET receptor trafficking, PAR2-RLuc8 with early endosomal marker Rab5a-venus in HEK293 cells; assay type: cell-based; conditions: for Effect on trypsin evoked internalisation, early endosomal marker: 30 μM inhibitor, 30 minute pre-treatment
Method: as §1, §2

PAR2 [3] = assay: Whole population FRET with cytosolic ERK sensor CytoEKAR in HEK293 cells; assay type: cell-based
Method: (§3) Förster Resonance Energy Transfer (FRET) was used to characterise PAR2 mediated ERK within different subcellular compartments upon stimulation with different agonists. The assays were repeated after employing pharmacological and genetic approaches shown to abolish receptor internalisation to assess the role of internalisation in generating compartmentalised signals.
(§4) After achieving ˜50% confluency within 10 cm dishes HEK293 cells were transfected with 2-5 μg of PAR2 with N-terminal HA epitope tag (PAR2-HA) and 2-5 μg of desired FRET biosensor, using PEI as a transfection agent. 24 hours after transfection, cells were seeded into poly-D-lysine coated black 96 well isoplates. FRET was assessed 48 hours after cell plating, following overnight serum restriction. […] When used endocytic inhibitors were diluted in 1×HBSS+1% dimethyl sulfoxide (DMSO). Following the replacement of culture media cells were allowed to equilibrate at 37° C. for 30 minutes. FRET was then determined using a PHERAstar FS microplate reader (BMG LabTech, Offenburg, Germany), cells were sequentially excited at 430 nm with emissions being read at 550 nm and 490 nm. A 4 minute baseline was obtained before the addition of vehicle (1×HBSS+/−1% DMSO), protease or 1 μM PDBu (serving as a positive control). Measurements were then continued every minute for a further 30 minutes. FRET ratios were then calculated and corrected to baseline and vehicle treatments in Microsoft Excel 2013.

PAR2 [4] = assay: Whole population FRET with nuclear ERK sensor NucEKAR in HEK293 cells; assay type: cell-based
Method: as §3
as §4, with “Measurements were then continued every minute for a further 30 minutes.” left out

DRG neurons = assay: Perforated patch-clamp excitability (rheobase) of isolated DRG neurons; assay type: cell-based, mice; conditions: for Effect of inhibitor alone on rheobase: 0 or 30 min; for Effect on cathepsin S- or elastase-induced decrease in rheobase (sustained excitability) at 30 min / Effect on trypsin-induced decrease in rheobase (sustained excitability) at 30 min / Effect on protease induced decrease in rheobase (initial hyperexcitability) at 0 min: inhibitor 30 min before and during protease; for Effect on protease induced decrease in rheobase (initial hyperexcitability) at 0 min: trypsin, cathepsin S or elastase
Method: To assess the effects of proteases on excitability of nociceptors, DRG neurons were preincubated with trypsin, cathepsin S, elastase or vehicle (control), washed, and rheobase and action potential discharge at a current of twice rheobase were measured at 0 min or 30 min after washing.
DRG (T9-T13) from C57BL/6 mice were digested by incubation in collagenase (1 mg/ml, Worthington Biochemical, Lakewood, N.J.) and dispase (4 mg/ml, Roche Life Science, Indianapolis, Ind.) for 10 min at 37° C., and were dispersed by trituration with a fire-polished Pasteur pipette. Cells were plated onto coverslips coated with laminin (0.017 mg/ml) and poly-D-lysine (2 mg/ml) in 24-well plates. Neurons were cultured in F12 medium (Cat N668, Lot RNBD5333, Sigma-Aldrich, St Louis, Mo. USA) containing 10% fetal calf serum, with penicillin and streptomycin and maintained at 37° C. in a humidified atmosphere of 95% air and 5% CO2 until retrieval (16 h) for electrophysiological studies.
Neuronal excitability was assessed by perforated patch-clamp recordings with amphotericin B (240 μg/ml) from small diameter neurons (<30 pF capacitance) in current clamp mode at room temperature. Only neurons with resting membrane potentials more negative than −40 mV were analyzed. Changes in excitability were quantified by measuring rheobase (minimum current to fire action potential) and numbers of action potentials discharged at twice rheobase. Recordings were made using Axopatch 200B amplifiers, digitized by Digidata 1322A and stored and processed using pClamp 10.1 software (Molecular Devices, Sunnyvale, Calif.). The recording chamber was continuously perfused with external solution at 2 ml/min. External solution was (mM): 140 NaCl, 5 KCl, 10 HEPES, 10 D-glucose, 1 MgCl2, 2 CaCl2; pH to 7.4 with 3 M NaOH. Pipette solution was (mM): 110 K-gluconate, 30 KCl, 10 HEPES, 1 MgCl2, 2 CaCl2; pH 7.25 with 1 M KOH.
DRG neurons were pre-incubated with vehicle (control) or proteases using conditions that we have reported to cause robust hyperexcitability: trypsin (50 nM, 10 min), elastase (10 U/ml, 390 nM, 30 min), Cat-S (500 nM, 60 min). Neurons were then washed and maintained in protease-free F12 medium. Neuronal excitability was assessed 0 or 30 min after washing. In some experiments, neurons were incubated with vehicle (0.3% DMSO), Dyngo4a (30 μM) or PitStop2 (15 μM) for 30 min before and during incubation with proteases.
Results are expressed as mean±SE. Two way ANOVA and post hoc Tukey's tests were used to analyze the data.

[5] = Protease-evoked mechanical hyperalgesia, von Frey paw withdrawal; assay type: in vivo, mice; conditions: for Effect on trypsin-evoked mechanical hyperalgesia: 30 min before trypsin
Method: (§5) Immediately before experiments the mice were acclimatized to the experimental apparatus, room and investigator for 1-2 h on 2 successive days. Mechanical nociceptive responses were evaluated by paw withdrawal to stimulation of the plantar surface of the hind-paw with calibrated von Frey filaments. von Frey scores were measured in triplicate to establish a baseline for each animal on the day before experiments. Paw edema was estimated by measuring the thickness of the hindpaw using digital calipers before and after treatments. Mice were […] with 5% isoflurane for intraplantar injections. Dyngo4a (50 μM), PitStop2 (50 μM) or vehicle (0.2% DMSO in 0.9% NaCl) (all 10 μl) were injected into the left hindpaw. After 30 min, trypsin (10 nM), Cat-S (2.5 μM) or elastase (30 U) (all 10 μl) were injected into the same left hindpaw. von Frey scores (left and right paws) and paw thickness (left paw) were measured hourly for up to 4 h after protease injection. Investigators were blinded to the test agents.

[6] = Protease-evoked paw edema, hindpaw thickness; assay type: in vivo, mice
Method: as §5

PAR2 [7] = assay: BRET proximity of PAR2 to KRas (plasma membrane) and Rab5a (endosomes) in HEK cells; assay type: cell-based
Method: (§6) The contribution of endocytosis of protease-activated receptor-2 (PAR2) was evaluated for generation of signals in subcellular compartments that mediate protease-evoked sensitization of nociceptors. Bioluminescence resonance energy transfer (BRET) was used to assess the proximity of PAR2 to resident proteins of the plasma membrane (KRas) and endosomes (Rab5a) in HEK cells. […] Förster resonance energy transfer (FRET) biosensors targeted to the plasma membrane, cytosol or nucleus were used to examine the capacity of proteases to generate signals in subcellular compartments of HEK cells and rat dorsal root ganglia neurons. […] Dynamin inhibitor Dyngo4a, Clathrin inhibitor Pitstop2 and dominant negative β-arrestin inhibited trypsin-evoked endocytosis of PAR2, and prevented trypsin-evoked activation of cytosolic cAMP and PKC and nuclear ERK. […] To examine the link between PAR2 endocytosis, compartmentalized signaling and nociceptor sensitization, perforated patch clamp recordings were made from mouse dorsal root ganglia neurons. […] The effects of proteases on excitability were blocked by the PAR2 antagonist GB88. Thus, canonical and biased proteases sensitize nociceptors by distinct mechanisms. For canonical agonists, PAR2 endocytosis generates compartmentalized signals subcellular compartments that underlie sustained excitability of nociceptive neurons. Inhibiting endosomal signaling of PAR2 may provide a novel method of treating protease-evoked pain.

PAR2 [8] = assay: FRET biosensors for compartmentalised cAMP, PKC and ERK signals in HEK cells and rat dorsal root ganglia neurons; assay type: cell-based
Method: as §6

PAR2 [9] = assay: BRET resensitisation assay, PAR2-RLuc8 with TGN38-venus in HEK293 cells; assay type: cell-based; conditions: 30 minute pre-treatment, all three proteases
Method: BRET resensitisation assays were used to quantify export of PAR2 from the trans-golgi network (TGN38-venus) upon stimulation of receptor expressed at the cell surface with a variety of proteases. The assays were repeated with various inhibitors of signaling nodes to verify signaling mechanisms behind receptor resensitisation.
After achieving ˜50% confluency within 10 cm dishes HEK293 cells were transiently transfected with PAR2-RLuc8 (1 μg) and TGN38-Venus (4 μg) using PEI as a transfection agent. 24 hours post transfection, cells were seeded into poly-D-lysine coated 96-well isoplates. BRET experiments were conducted the following day. Cells were allowed to equilibrate in either 1×HBSS (+0-28 g HEPES/100 ml, pH 7-40), […] Gallein (Gβγ inhibitor), 100 nM CRT0066101 (PKD inhibitor) or G06983 (PKC inhibitor) at 37° C. for 30 minutes before the addition of colenterazine H [5 μM]. Following a 5 minute incubation BRET was assessed using a LUMIstar Omega microplate reader (BMG LabTech, Offenburg, Germany), with luminescence being read at 535 nm and 475 nm. A 4 minute baseline was obtained before the addition of vehicle (1×HBSS) or protease, measurements were then continued for a further 30 minutes. BRET ratios were calculated using LUMIstar MARS analysis software and then corrected to baseline and vehicle treatments in Microsoft Excel 2013.

[10] = intraplantar 50 μM, 30 min before protease

| Effect on cathepsin S- or elastase-induced decrease in rheobase (sustained excitability) at 30 min (DRG neurons) | Molecule | Effect on protease induced PAR2 trafficking away from the trans-golgi network (PAR2 [9]) | Effect on trypsin evoked internalisation, plasma membrane marker (PAR2 [1]) | Effect on trypsin evoked internalisation, early endosomal marker (PAR2 [2]) | Effect of inhibitor alone on rheobase (DRG neurons) | Effect on trypsin-induced decrease in rheobase (sustained excitability) at 30 min (DRG neurons) | Effect on protease induced decrease in rheobase (initial hyperexcitability) at 0 min (DRG neurons) | Effect on trypsin-evoked mechanical hyperalgesia ([5]; intraplantar 50 μM) | Effect on trypsin-evoked endocytosis of PAR2 (PAR2 [7]) | Effect on trypsin-evoked activation of cytosolic cAMP and PKC and nuclear ERK (PAR2 [8]) | also measured |
| --- | --- | --- | --- | --- | --- | --- | --- | --- | --- | --- | --- |
| – | elastase | – | – | – | – | – | – | – | – | – | Change in BRET between PAR2 and plasma membrane marker upon agonist stimulation (PAR2 [1]; trypsin 10 nM): not observed; Change in BRET between PAR2 and early endosomal marker upon agonist stimulation (PAR2 [2]; trypsin 10 nM): not observed; Ability of agonist to produce ERK signals within the cytoplasm (PAR2 [3]): not; Ability of agonist to produce ERK signals within the nucleus (PAR2 [4]): not; Effect of protease on excitability (rheobase) of DRG neurons (DRG neurons; 0 min and 30 min after washing): immediate increase in excitability; Mechanical hyperalgesia after intraplantar injection of protease ([5]; ipsilateral paw): caused mechanical hyperalgesia of the ipsilateral paw that was sustained for at least 4 h; Edema after intraplantar injection of protease ([6]; ipsilateral paw): edema of the ipsilateral paw that was maximal after 4 h; PAR2 endocytosis induced by agonist (PAR2 [7]; HEK cells): did not induce PAR2 endocytosis; Signals generated by protease in subcellular compartments (PAR2 [8]): only activated cAMP and PKC at the plasma membrane and ERK in the cytosol |
| – | O=C1OC2(c3ccccc31)c1ccc(O)c(O)c1Oc1c2ccc(O)c1O [Gallein] | reduced PAR2 trafficking away from the trans-golgi network | – | – | – | – | – | – | – | – | – |
| – | COc1ccc2c(c1)c(C1=C(c3c[nH]c4ccccc34)C(=O)NC1=O)cn2CCCN(C)C [G06983] | Less prominent effects | – | – | – | – | – | – | – | – | – |
| no effect and not | O=C(N/N=C/c1cc(O)c(O)cc1O)c1cc2ccccc2cc1O [Dyngo4a, reference compound] | – | less pronounced inhibition | less pronounced inhibition | Neither vehicle, PitStop2 nor Dyngo4a alone affected rheobase | prevented | did not affect | inhibited | inhibited | prevented | Effect on Cat-S- or elastase-evoked mechanical hyperalgesia [5, 10]: did not affect; Effect on trypsin-, Cat-S- or elastase-evoked edema [6, 10]: did not affect |
| no effect | O=C1NC(=NS(=O)(=O)c2cccc3ccccc23)S/C1=C\c1ccc(Br)cc1 [PitStop2, reference compound] | – | reduced the magnitude of BRET | reduced the magnitude of BRET | Neither vehicle, PitStop2 nor Dyngo4a alone affected rheobase | prevented | did not affect | inhibited | inhibited | prevented | Effect on trypsin evoked cytosolic ERK phosphorylation (PAR2 [3]; 30 μM inhibitor, 30 minute pre-treatment): diminished; Effect on cathepsin S- or elastase-induced decrease in rheobase (sustained excitability) at 30 min (DRG neurons; listed as Pitstop2): not |
| – | CC[C@@H](N)CNc1ccnc(-c2cc(-c3cnn(C)c3)ccc2O)n1.Cl.Cl [CRT0066101] | Less prominent effects | – | – | – | – | – | – | – | – | – |
